# Tested on: NCI-H322M multicellular tumor spheroids, viability (% test/control)
# Experiment: Anticancer human tumor NCI-H322M cell line growth inhibition;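 as to viability, T/C: spheroids exposed to compound for seven days before readout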
# Conditions: for IC50: curve of first compound; for viability, T/C: stronger effect = lower value
# Excerpt: Multicellular complex tumor spheroid response to DNA repair inhibitors in combination with DNA-damaging drugs
# This study explores the anticancer activities of DNA-damaging drugs and inhibitors of DNA damage repair, both as single agents and in combinations. Complex tumor spheroids comprised of malignant cells, endothelial cells and mesenchymal stem cells served as an in vitro model for human solid tumors. This model system incorporates physiologically relevant features and patient-derived or established malignant cell lines with clinically relevant genetic alterations from many tumor types. Twenty-six patient-derived or established malignant cell lines were evaluated representing sarcoma, melanoma, small cell lung cancer (SCLC), non-small cell lung cancer (NSCLC), as well as bladder, ovarian and pancreatic cancers. The concentration ranges selected for each drug and investigational agent were based upon clinically achievable concentrations if the clinical Cmax of the agent was known.
# Compounds. The drugs and compounds olaparib (NSC753686), talazoparib (NSC767125), berzosertib (NSC777718), elimusertib (NSC800525), nedisertib (NSC802822), VX-984 (NSC792969), AZD-1390 (NSC803789), temozolomide (NSC362856), topotecan (NSC609699), trabectedin (NSC813783), staurosporine (NSC755774), and gemcitabine (NSC613327) were obtained from the National Cancer Institute (NCI) Developmental Therapeutics Program Chemical Repository. The FDA-approved anticancer drug set is available from the Developmental Therapeutics Program at https://dtp.cancer.gov/organization/dscb/obtaining/available_plates.htm. […] The stock solutions were prepared in dimethyl sulfoxide (DMSO, Sigma-Aldrich, St. Louis, MO, cat. D2650) at 400-fold the tested concentration and stored at -70 degrees C. Prior to their use, the stock solutions were diluted in fresh medium and the final DMSO concentration in the assay was 0.25% (v/v). All drugs and investigational agents were tested over a range starting from a high concentration at or near the clinical Cmax and decreasing in half-log increments. If the clinical Cmax for an agent had not been determined, the highest concentration tested was 10 microM.
# Cell Lines. The patient-derived cancer cell (PDC) lines: 156681-154-R-J1-PDC, 283228-195-R-J1-PDC, 287954-098-R-J1-PDC, 292921-168-R-J2-PDC, 349418-098-R-PDC, 425362-245-T-J1-PDC, 556581-035-R-J1-PDC, and BL0293-F563-PDC were received from the NCI Patient-Derived Models Repository (PDMR, https://pdmr.cancer.gov). The established cell lines HS-SY-2 (RRID:CVCL_8719), MPNST, and SYO-1 (RRID:CVCL_7146) were obtained from the Sloan Kettering Institute. The alveolar soft parts sarcoma cell line ASPS-1 (RRID:CVCL_S738) was established at the NCI and grown from internal seed stocks. The following established cell lines were purchased from the American Type Culture Collection (ATCC, Manassas, VA): G-401 (ATCC, cat. CRL-1441, RRID:CVCL_0270), SW982 (ATCC, cat. HTB-93, RRID:CVCL_1734), VA-ES-BJ (ATCC, cat. CRL-2138, RRID:CVCL_1785), NCI-H719 (ATCC, cat. CRL-5837, RRID:CVCL_1582), NCI-H196 (ATCC, cat. CRL-5823, RRID:CVCL_1509), NCI-H841 (ATCC, cat. CRL-5845, RRID:CVCL_1595), NCI-H1618 (ATCC, cat. CRL-5879, RRID:CVCL_1480), NCI-H1876 (ATCC, cat. CRL-5902, RRID:CVCL_1503), DMS 114 (ATCC, cat. CRL-2066; RRID:CVCL_1174), NCI-H211 (ATCC, cat. CRL-5824; RRID:CVCL_1529), and SW 1271 (ATCC, cat. CRL-2177, RRID:CVCL_1716). The small cell lung cancer cell line COR-L88 was purchased from Sigma-Aldrich (cat. 92031917-1VL, RRID:CVCL_1141). The non-small cell lung cancer cell lines NCI-H226 (RRID:CVCL_1544) and NCI-H322M (RRID:CVCL_1557) were established at the NCI and grown from internal seed stocks. Pooled donor human umbilical vein endothelial cells (HUVEC, Lonza, cat. CC-2519) and human mesenchymal stem cells (hMSC, Lonza, cat. PT-2501) were purchased from Lonza (Walkersville, MD).
# Cell Culture. All cells were maintained in an incubator at 37 degrees C and 5% CO2 with 95% humidity. […]
smiles,measurement,setting,value
Cc1cc(C)c(CNC(=O)c2cc(-c3ccc(CN4CCOCC4)cc3)cc3c2cnn3C2CCCC2)c(=O)[nH]1 + Cn1nnc2c(C(N)=O)ncn2c1=O,IC50,second compound 1 µM,> 10 µM
same,IC50,second compound 3.16 µM,> 10 µM
same,IC50,second compound 10 µM,> 10 µM
same,IC50,second compound 31.6 µM,> 10 µM
same,IC50,second compound 100 µM,> 10 µM
same,"viability, T/C","second compound 1 µM, first compound 0.0316 µM",99.7%
same,"viability, T/C","second compound 1 µM, first compound 0.1 µM",101%
same,"viability, T/C","second compound 1 µM, first compound 0.316 µM",98.5%
same,"viability, T/C","second compound 1 µM, first compound 1 µM",94.3%
same,"viability, T/C","second compound 1 µM, first compound 3.16 µM",133%
same,"viability, T/C","second compound 1 µM, first compound 10 µM",95.5%
same,"viability, T/C","second compound 3.16 µM, first compound 0.0316 µM",78%
same,"viability, T/C","second compound 3.16 µM, first compound 0.1 µM",102%
same,"viability, T/C","second compound 3.16 µM, first compound 0.316 µM",103%
same,"viability, T/C","second compound 3.16 µM, first compound 1 µM",81.3%
same,"viability, T/C","second compound 3.16 µM, first compound 3.16 µM",107%
same,"viability, T/C","second compound 3.16 µM, first compound 10 µM",118%
same,"viability, T/C","second compound 10 µM, first compound 0.0316 µM",92.2%
same,"viability, T/C","second compound 10 µM, first compound 0.1 µM",94.3%
same,"viability, T/C","second compound 10 µM, first compound 0.316 µM",105%
same,"viability, T/C","second compound 10 µM, first compound 1 µM",106%
same,"viability, T/C","second compound 10 µM, first compound 3.16 µM",101%
same,"viability, T/C","second compound 10 µM, first compound 10 µM",119%
same,"viability, T/C","second compound 31.6 µM, first compound 0.0316 µM",101%
same,"viability, T/C","second compound 31.6 µM, first compound 0.1 µM",95%
same,"viability, T/C","second compound 31.6 µM, first compound 0.316 µM",103%
same,"viability, T/C","second compound 31.6 µM, first compound 1 µM",104%
same,"viability, T/C","second compound 31.6 µM, first compound 3.16 µM",104%
same,"viability, T/C","second compound 31.6 µM, first compound 10 µM",122%
same,"viability, T/C","second compound 100 µM, first compound 0.0316 µM",105%
same,"viability, T/C","second compound 100 µM, first compound 0.1 µM",100%
same,"viability, T/C","second compound 100 µM, first compound 0.316 µM",113%
same,"viability, T/C","second compound 100 µM, first compound 1 µM",96.8%
same,"viability, T/C","second compound 100 µM, first compound 3.16 µM",105%
same,"viability, T/C","second compound 100 µM, first compound 10 µM",123%
CC1COCCN1c1cc(-c2ccnn2C)c2ccnc(-c3ccn[nH]3)c2n1 (stereo not given) + COc1cc2c(cc1O)CCNC21CSC2c3c(OC(C)=O)c(C)c4c(c3C(COC1=O)N1C(O)C3Cc5cc(C)c(OC)c(O)c5C(C21)N3C)OCO4,IC50,second compound 30 pM,< 0.0316 µM
same,IC50,second compound 94.9 pM,< 0.0316 µM
same,IC50,second compound 0.0003 µM,< 0.0316 µM
same,IC50,second compound 0.000949 µM,< 0.0316 µM
same,IC50,second compound 0.003 µM,< 0.0316 µM
same,"viability, T/C","second compound 30 pM, first compound 0.0316 µM",50.9%
same,"viability, T/C","second compound 30 pM, first compound 0.1 µM",34.8%
same,"viability, T/C","second compound 30 pM, first compound 0.316 µM",28.1%
same,"viability, T/C","second compound 30 pM, first compound 1 µM",29.2%
same,"viability, T/C","second compound 30 pM, first compound 3.16 µM",31%
same,"viability, T/C","second compound 30 pM, first compound 10 µM",33%
same,"viability, T/C","second compound 94.9 pM, first compound 0.0316 µM",42.3%
same,"viability, T/C","second compound 94.9 pM, first compound 0.1 µM",29.3%
same,"viability, T/C","second compound 94.9 pM, first compound 0.316 µM",27.5%
same,"viability, T/C","second compound 94.9 pM, first compound 1 µM",25.9%
same,"viability, T/C","second compound 94.9 pM, first compound 3.16 µM",29.2%
same,"viability, T/C","second compound 94.9 pM, first compound 10 µM",32.3%
same,"viability, T/C","second compound 0.0003 µM, first compound 0.0316 µM",28%
same,"viability, T/C","second compound 0.0003 µM, first compound 0.1 µM",21.1%
same,"viability, T/C","second compound 0.0003 µM, first compound 0.316 µM",21%
same,"viability, T/C","second compound 0.0003 µM, first compound 1 µM",22.7%
same,"viability, T/C","second compound 0.0003 µM, first compound 3.16 µM",24.3%
same,"viability, T/C","second compound 0.0003 µM, first compound 10 µM",26.8%
same,"viability, T/C","second compound 0.000949 µM, first compound 0.0316 µM",19.4%
same,"viability, T/C","second compound 0.000949 µM, first compound 0.1 µM",15%
same,"viability, T/C","second compound 0.000949 µM, first compound 0.316 µM",17%
same,"viability, T/C","second compound 0.000949 µM, first compound 1 µM",19.7%
same,"viability, T/C","second compound 0.000949 µM, first compound 3.16 µM",18.8%
same,"viability, T/C","second compound 0.000949 µM, first compound 10 µM",18%
same,"viability, T/C","second compound 0.003 µM, first compound 0.0316 µM",3.51%
same,"viability, T/C","second compound 0.003 µM, first compound 0.1 µM",3.16%
same,"viability, T/C","second compound 0.003 µM, first compound 0.316 µM",3.09%
same,"viability, T/C","second compound 0.003 µM, first compound 1 µM",2.33%
same,"viability, T/C","second compound 0.003 µM, first compound 3.16 µM",2.23%
same,"viability, T/C","second compound 0.003 µM, first compound 10 µM",0.78%
